Measurements as given in BigSolDB 2.1.

C1=Cc2ccccc2Nc2ccccc21
solubility (mole fraction)
Settings	278.15 K	283.15 K	288.15 K	293.15 K	298.15 K	303.15 K	308.15 K	313.15 K	318.15 K	323.15 K
in 1,4-dioxane	–	–	0.0312	0.0349	0.0392	0.0423	0.0481	0.052	0.058	0.0632
in DMAc	0.113	0.122	0.13	0.139	0.149	0.159	0.17	0.179	0.192	0.203
in DMF	0.109	0.116	0.122	0.129	0.136	0.144	0.153	0.161	0.169	0.178
in NMP	0.219	0.223	0.23	0.239	0.246	0.251	0.257	0.265	0.273	0.281
in acetone	0.0162	0.0178	0.0197	0.0219	0.0242	0.0268	0.0296	0.0327	0.0363	0.04
in acetonitrile	0.00245	0.00298	0.00345	0.00412	0.00489	0.00575	0.00676	0.00782	0.00933	0.0108
in ethyl acetate	0.01	0.0116	0.0133	0.015	0.0172	0.0193	0.0214	0.0243	0.0271	0.03
in isobutyl acetate	0.0105	0.0119	0.0132	0.0146	0.0161	0.0184	0.0206	0.023	0.0257	0.0285
in isopropyl acetate	0.00918	0.0104	0.0118	0.0133	0.0152	0.0168	0.0181	0.0202	0.0222	0.0249
in methyl acetate	0.00825	0.0092	0.0102	0.0118	0.0132	0.015	0.017	0.0192	0.0215	0.0239
in n-butyl acetate	0.0133	0.0152	0.0171	0.0189	0.0208	0.0236	0.0261	0.0289	0.0321	0.0362
in n-propyl acetate	0.0126	0.0143	0.0157	0.0175	0.0194	0.0215	0.0239	0.0267	0.0299	0.0331
